# “Also recorded” adds a separate entry of the source.
# How the values were obtained:
# [1] = tested on: primary human hepatocytes; assay: Hepatocyte spheroid assay (liver metabolite study); type: in vitro ADME
# Protocol: Cryopreserved primary human hepatocytes were acquired from ThermoFisher. To each well of a 96 well ultra-low attachment U-bottom plate, 2,000 cells were plated in 200 μL William's E Medium (no phenol red, 20% FBS, 1% penicillin-streptomycin, 1% insulin-transferrin-selenium solution, […], 1% L-glutamine). The plate was centrifuged at 300 rpm for 2 minutes and then incubated without disturbance. After 5 days, 100 μL of spent media was removed and replaced with fresh media. […] The supernatant was then removed and analyzed on an Agilent 1260 Infinity II LC system equipped with an Eckert & Ziegler FlowCountPRO detector.
# Specifically, 2,000 cells were plated in 200 μL William's E Medium (no phenol red, 20% FBS, 1% penicillin-streptomycin, 1% insulin-transferrin-selenium solution, […], 1% L-glutamine). […] The supernatant was then removed and analyzed on an Agilent 1260 Infinity II LC system equipped with an Eckert & Ziegler FlowCountPRO detector.
# Specifically, cryopreserved hepatocytes were thawed and diluted 1:10 in a 15 mL conical tube with warm culture media (William's E Medium, no phenol red, 20% FBS, 1% penicillin-streptomycin, 1% insulin-transferrin-selenium solution, […], 1% L-glutamine). […] Cells were counted and diluted to a concentration of 10,000 live cells/mL. […] The supernatant was transferred into an autosampler vial and analyzed by HPLC.
# HCT116-eDHFR tumors = assay: Ex vivo biodistribution in HCT116 tumor-bearing athymic nude mice; parameters: species or system human; settings: 1.85 MBq i.v., 3 hours
# Protocol: To evaluate the therapeutic potential [^131I]mI-TMP, sixteen (16) 8- to 12-week-old female athymic nude mice (Charles River Laboratories) were inoculated with 1×10^7 HCT116 tumor cells (eDHFR+ or WT) on the left shoulder. The mice were then divided into two groups: […] (8) mice with HCT116-eDHFR (eDHFR-positive cells) and Eight (8) mice with HCT116-WT (eDHFR-negative) cells.
# Ex-vivo biodistribution studies were conducted on three (3) tumor-bearing mice from each group, while the remaining ten (10) mice were used to monitor tumor response to radiotherapy.
# Three (3) hours post radiotracer injection mice were euthanized, and organs of interest were harvested for biodistribution quantification. Total radioactive uptake per organ, in counts per minute (CPM), was determined by γ-counter (Perkin Elmer).
# [2] = Ex vivo biodistribution in healthy Balb/c mice; parameters: species or system mouse
# Protocol: Given promising in vitro experimental results, a biodistribution study was conducted on healthy balb/c mice. […] Mice were then euthanized 1-hour, 4-hour, and 24-hour post radiotracer injection, and organs were harvested for bio-distribution quantification. […] Total radioactive uptake per organ, in CPM, was determined by γ-counter (Wizard Detector, Perkin Elmer). […] See, FIG. 10A-10B and FIG. 11. These tissues could be sites where eDHFR could be localized using genetic vectors to achieve a high therapeutic index.
# Another ex-vivo biodistribution study was performed with potassium iodide (SSKI) administration 8-12-week-old female balb/c mice (n=9) were administered with intraperitoneal administration for thyroid protection, with a dose of 100 mg/kg potassium iodide in a volume of 100 μL/10 g given the day before treatment, 30 minutes before the radioactive [^131I]mI-TMP injection.
# eDHFR = molecular target: T1, eDHFR (Escherichia coli, UniProt P0ABQ4); assay: Uptake and washout in HCT116-eDHFR-Luc vs WT cells; type: cell-based; parameters: in CAR T cells fused to C-terminus of CD3zeta of FAP-CAR
# T1 sequence (P0ABQ4 1-159): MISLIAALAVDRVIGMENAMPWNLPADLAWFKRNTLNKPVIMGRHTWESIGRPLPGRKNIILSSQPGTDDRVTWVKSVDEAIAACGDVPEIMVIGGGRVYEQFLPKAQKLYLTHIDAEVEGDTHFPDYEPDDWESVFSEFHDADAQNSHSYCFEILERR
# Protocol: The cells were sampled at 1 h, 2 h and 4 h. […] Similarly, the process cells was repeated for 2 h and 4 h samples.
# Next, the therapeutic effect of [^131/125I]mI-TMP in a human colorectal carcinoma cell line, HCT116 was analyzed. […] The specificity of radiotracer uptake was determined by blocking conditions. […] See, FIG. 10A.
# A washout study was performed to know the retention of the tracer in the cells. HCT116_eDHFR cells were incubated with 0.037 MBq of compound 5b for 20 minutes. The cells were washed, resuspended and sampled at 60, 120 and 240 minutes. […] To examine the radiotherapeutic effect, the incubation period was increased and the dose […]. The cells were dosed with 3.7 MBq at 37 °C and incubated them with 2 and 4 hours. See, FIG. 10B.
compound,measurement,setting,value
"COc1cc(Cc2cnc(N)nc2N)cc(I)c1OC [[^131I]mI-TMP, 5-(3-iodo-4,5-dimethoxybenzyl)pyrimidine-2,4-diamine]",de-iodination in hepatocyte culture,[1]; after 24 hours,minor de-iodination
same,de-iodination with CYP450 inhibitor,[1]; with 1-aminobenzotriazole (100 μM),could be inhibited
"COc1cc(Cc2cnc(N)nc2N)cc([131I])c1OC [[^131I]mI-TMP, 5-(3-iodo-4,5-dimethoxybenzyl)pyrimidine-2,4-diamine]",uptake in eDHFR tumors relative to WT tumors,HCT116-eDHFR tumors,twice as much
same,stomach and liver uptake with KI pre-treatment,"[2]; 0.67 MBq, 1 h",low uptake
same,"uptake in blood, heart, lungs, brain, pancreas, bones and spleen with KI pre-treatment","[2]; 0.67 MBq, 1 h",Minimal to no uptake; also recorded: negligible uptake
same,"organ radioactivity, 24 h","[2]; 0.74 MBq i.v. tail vein, 24 h, no KI","increase in radioactivity in thyroid, indicating the deiodination"
same,"organ radioactivity, 1 h","[2]; 0.74 MBq i.v. tail vein, Balb/c, after 1 h time point","significant increase in the radioactivity in the kidney, small intestine, stomach, and liver"
same,"uptake in heart, lungs, brain, pancreas, bones and spleen","[2]; 0.74 MBq i.v., all time points (1, 4, 24 h)",Minimal to no uptake
same,organ radioactivity with KI pre-treatment,"[2]; kidney, small intestine, large intestine, 0.67 MBq, 1 h","significant increase in the radioactivity in the kidney, small intestine and large intestine"
same,thyroid uptake with KI pre-treatment,"[2]; potassium iodide (SSKI) 100 mg/kg, 0.67 MBq, 1 h",abrogated thyroid uptake
same,uptake of radiotracer in eDHFR+ cells in comparison to wild-type,eDHFR,two-fold increase in uptake
